What all share (type): cell-based, mouse
The test system of assay [1] is phospho-(Ser/Thr) PKA substrate. Nature of the assay: Phosphorylation of PKA substrates by Western blot in brown adipocytes. The settings on record: overnight, 10 μM. As to the method:
Cells and tissues were lysed in 10 mM Tris pH 7.5, 10 mM NaCl, 1 mM EDTA and 0.5% Triton X-100, supplemented with complete mini EDTA-free protease (Roche Diagnostics) and phosphatase (Cocktail 2 and 3, Sigma) inhibitors, followed by 10 second sonication. For analysis of mitochondrial proteins, mitochondria were isolated from cells by dual centrifugation, as described. Protein lysates were separated by SDS-PAGE and transferred to a nitrocellulose membrane. Transfer was confirmed by Ponceau staining (P7170, Sigma). After blocking in 5% milk, 0.1% Tween-20 in Tris-buffered saline (TBS), primary antibody was incubated overnight at 4° C. in 5% bovine serum albumin and 0.1% Tween-20 in TBS. Primary antibodies against ACTB (GTX109639, GeneTex), AKAP1 (5203, Cell Signaling), AKAP6 (07-087, Millipore), Cytochrome c (136F3, Cell Signaling), electron transport chain protein complexes (Total OXPHOS rodent WB antibody cocktail ab110413, Abcam), GAPDH (GTX100118, Genetex), active p38 MAPK (V1211, Promega), total p38 MAPK (8690, Cell Signaling), PGC1α (AB3242, Millipore), phospho-(Ser/Thr) PKA substrate (9621, Cell Signaling), PKA C-α (4782, Cell Signaling), PKA RII-β (ab75993, Abcam), and UCP1 (662045, Calbiochem) were used at 1:2000. […] Quantification using representative bands from the Ponceau staining was performed with ImageJ.
A general note: Immunoblotting shows a protein as a band on a membrane.

A further assay concerns Ucp1. The assay can be described thus: Gene expression by qPCR in primary brown adipocytes. The conditions noted are these: for expression of markers of brown adipocyte identity, mitochondrial function and fatty acid oxidation genes / endogenous Ucp1 expression: 10 μM; for endogenous Ucp1 expression: primary mouse brown adipocytes. How it is done: Primary brown adipocytes were isolated according to known methods. An established mouse brown adipocyte cell line was obtained from Dr. Bruce Spiegelman (Dana-Farber Cancer Institute, Boston, USA). To differentiate primary and immortalized brown adipocytes, cells were grown until confluency in DMEM containing 10% FBS, 25 mM glucose 1 mM pyruvate, 2 mM glutamine, 20 nM insulin, 1 nM T3, and antibiotics. Once confluent (day 0), differentiation was induced by supplementing the medium with 0.5 mM IBMX, 0.5 μM dexamethasone, and 0.125 mM indomethacin, for 2 days. Differentiation was continued in the original medium (without IBMX, dexamethasone and indomethacin) for 7-10 days.
RNA levels were measured by qPCR according to known methods. Briefly, RNA was extracted with TRIzol (Invitrogen) and reverse transcribed with iScript (Bio-Rad). Real-time PCR analysis was performed with a CFX Connect (Bio-Rad).
Mouse RNA levels were measured by qPCR according to known methods. Data were normalized to B2m and Tbp reference genes. Human RNA was extracted using an RNA Mini Plus kit (Zymo) and gene expression determined by Taqman assay. The 1-step qPCR was run on a QuantStudio 12K Flex Real Time PCR System (ThermoFisher) using the following protocol: 50° C. for 5 minutes, 95° C. for 20 seconds, 40 cycles of 95° C. for 15 seconds and 60° C. for 60 seconds. Data were normalized to PPIA and PSMB2 reference genes. For global gene expression analysis, RNA isolated from brown adipocytes treated with compounds as indicated (four biological replicates) was hybridized to Illumina mouse Ref 8 V2.0 bead chips at the University of California, Los Angeles Neuroscience Genomics Core as previously described. Data were processed with GenomeStudio V2011.1 using the quantile normalization, background subtraction, and a present call of P<0.05.
(In general: Real-time PCR tracks product formation cycle by cycle.)

The test system of a further assay is PKA. The assay can be described thus: PKA activity ELISA, brown adipocytes treated overnight. The settings on record: immortalized brown adipocytes, 10 μM. How it is done: PKA kinase activity was measured with an ELISA that utilized a synthetic peptide as substrate for PKA and a polyclonal antibody that recognizes the phosphorylated form of the substrate (ab139435, Abcam). PKA activity was measured in lysates from cultured brown adipocytes, mouse BAT, or liver. Cells and tissues were lysed in 20 mM MOPS, 5 mM EGTA, 2 mM EDTA, and 0.1% Triton X-100 supplemented with protease and phosphatase inhibitor as described above. Protein concentration was determined by Bradford assay and 10 μg of cells, 0.25 μg of BAT extract, or 0.5 μg of liver extract were assessed for PKA activation according to the manufacturer's instruction, with minor changes. Briefly, vehicle or Z160 was incubated with brown adipocyte cells overnight or with protein lysates for 30 min, followed by one wash before the primary antibody, 60 min incubation with the primary antibody, 30 min incubation with the secondary antibody, and by 10 min washing. Absorbance was measured after the substrate was added for 20-60 min, depending the intensity of the signal.
Background: An ELISA detects its analyte on a solid surface through an enzyme-linked reagent.

In assay [2] the test system is immortalized brown adipocytes. Nature of the assay: Cellular respiration (Seahorse) in immortalized brown adipocytes. The settings on record: 10 μM. How it is done: Cellular respiration was measured using a Seahorse XF24 or XF96 analyzer (Agilent) following known protocols Immortalized brown adipocytes were differentiated in 6-well plates and replated in the Seahorse XF24 plates at a density of 50,000 cells per well using trypsin and collagenase type II. Cells were treated with vehicle (DMSO) or compounds for 18-24 h. Oxygen consumption rates were obtained before and after the sequential injection of 0.75 μM oligomycin, 0.5 μM FCCP, and 0.75 μM rotenone/myxothiazol. Results were normalized to total protein. For human white adipocytes, cells were cultured as described above and differentiated in XF96 microplates. DMSO or Z160 (10 μM) was added at day 17 and for 4 days. Oxygen consumption rates were measured before and after the sequential injection of 1 μM oligomycin, 1 μM FCCP, and 0.5 μM rotenone/antimycin A. For these cells, results were normalized to cell count determined by nuclei fluorescent staining with Hoescht staining imaged on Cytation 5 Imaging Reader and analysis with Gen5 software (BioTek). For both mouse and human cell lines, mitochondrial respiration was calculated by subtracting the non-mitochondrial respiration present after the last injection. Uncoupled respiration corresponds to the respiration difference between oligomycin and the last injections. Maximal respiration was determined after FCCP injection.

Data on two compounds can be found in US12661355B2, “Compounds and methods for inducing UCP1 expression” (The Regents of the University of California, priority 2020, dated 2026).

For the compound `O=C(CSc1nc2ccccc2c(=O)[nH]1)Nc1ccc2c(c1)OCCO2` [AST070, N-(2,3-dihydro-1,4-benzodioxin-6-yl)-2-[(4-oxo-3,4-dihydroquinazolin-2-yl)sulfanyl]acetamide], the “phosphorylation of PKA substrates” value in assay [1] is on record as “increased the levels of phosphorylation”. The “expression of markers of brown adipocyte identity, mitochondrial function and fatty acid oxidation genes” value with Ucp1 (primary brown adipocytes) is given as “promoted expression”. Also, the “endogenous Ucp1 expression” value in the assay with Ucp1 was found to be 29 fold. Moreover, the PKA activity entry in the assay with PKA was “significantly increased”. Moreover, in assay [2], the maximal respiration result is “significantly elevated”, the mitochondrial respiration result was “increased” and the uncoupled respiration entry is reported as “increased”.

As to `COc1ccc(NC(=O)CSc2nc3ccccc3c(=O)[nH]2)c(OC)c1` [Z160], the “phosphorylation of PKA substrates” value in assay [1] is “increased the levels of phosphorylation”. Further, in the assay on Ucp1 (primary brown adipocytes), the “expression of markers of brown adipocyte identity, mitochondrial function and fatty acid oxidation genes” value is reported as “promoted expression”. In the assay on Ucp1 (primary brown adipocytes, 10 μM overnight), the “expression of lipolytic enzymes (Atgl, Hsl) and FGF21 at the mRNA level” value is on record as “increased expression”. Further, in the assay on Ucp1, the “endogenous Ucp1 expression” value stood at 62 fold. In addition, the PKA activity result in the assay on PKA is “significantly increased”. Besides, in assay [2], the maximal respiration result was “showed the same trend”, the mitochondrial respiration entry is “increased” and the uncoupled respiration entry is recorded as “increased”.
